Where “and” joins values, the source holds several entries; their conditions need not be identical. Equal entries are not always repeated.
What was measured:
[1] = tested on: Amaranthus tuberculatus with a mutation at amino acid 210; assay: Field trial: control of Amaranthus tuberculatus visually assessed as % weed control (Example 3); type: in vivo
Method: A field trial was carried out in a plot in Canada. The plot size per replicate was set to 10 m^2. Compound 1 and the standard product saflufenacil were applied to about 4 inch (about 10 cm) tall Amaranthus tuberculatus with a mutation at amino acid 210, using a water volume of 300 I/ha. The efficacy of the tested compounds was visually assessed 14 days after the application and expressed in % weed control, whereas ratings range from 100% being complete control and 0% representing weed populations/growth similar to what is observed in the untreated check. Only species present at a sufficient density and consistency were assessed for reliable ratings.

[2] = tested on: Amaranthus tuberculatus, homozygous for the deletion of glycine at amino acid 210 in PPX2L (G210 deletion); assay: Postemergence control of Amaranthus tuberculatus with G210 deletion in PPX2L (Example 2); type: in vivo

| SMILES | control of Amaranthus tuberculatus with a mutation at codon 210 compared to saflufenacil [1] | % Survival out of 14 repetitions ([2]; […], 0.5 g ai/ha^−1, postemergence, 14 days after application, Agridex 1% by volume) | % Survival out of 14 repetitions ([2]; […], 1 g ai/ha^−1, postemergence, 14 days after application, Agridex 1% by volume) | % Survival out of 14 repetitions ([2]; […], 2 g ai/ha^−1, postemergence, 14 days after application, Agridex 1% by volume) | % Survival out of 14 repetitions ([2]; […], 4 g ai/ha^−1, postemergence, 14 days after application, Agridex 1% by volume) | % Survival out of 14 repetitions ([2]; […], 8 g ai/ha^−1, postemergence, 14 days after application, Agridex 1% by volume) | % Survival out of 14 repetitions ([2]; […], 16 g ai/ha^−1, postemergence, 14 days after application, Agridex 1% by volume) | % Survival out of 14 repetitions ([2]; […], 32 g ai/ha^−1, postemergence, 14 days after application, Agridex 1% by volume) | % Survival out of 14 repetitions ([2]; […], 64 g ai/ha^−1, postemergence, 14 days after application, Agridex 1% by volume) | plant survival ([2]; at or beyond 32 g ai/ha) | control of PPO inhibitor herbicide resistant Amaranthus tuberculatus with a mutation at amino acid 210 compared with fomesafen ([2]; in vivo) | % Survival out of 14 repetitions ([2]; in vivo) | plant survival ([2]; in vivo) |
| --- | --- | --- | --- | --- | --- | --- | --- | --- | --- | --- | --- | --- | --- |
| CCOC(=O)[C@]1(C)CC(c2cc(-n3c(=O)n(C)c(=S)n(C)c3=O)c(F)cc2Cl)=NO1 [compound 1, ethyl (5S)-3-[2-chloro-5-(3,5-dimethyl-2,6-dioxo-4-thioxo-1,3,5-triazinan-1-yl)-4-fluoro-phenyl]-5-methyl-4H-isoxazole-5-carboxylate] | equivalent, if not slightly improved control | 100% | 100% | 100% | 100% | 86% | 50% | 0% | 0% | no plants survived | superior control | – | – |
| CS(=O)(=O)NC(=O)c1cc(Oc2ccc(C(F)(F)F)cc2Cl)ccc1[N+](=O)[O-] [fomesafen, reference compound] | – | – | – | – | – | – | – | – | – | – | – | 100% and 93% | significant plant survival |

Reference: US20260372305A1, “A METHOD FOR CONTROLLING WEEDS” (SYNGENTA CROP PROTECTION AG, priority 2022, published 2026)
